Laboratory results published in patent EP0121764B1, “Polypeptides” (F. HOFFMANN-LA ROCHE AG, priority 1983, dated 1990).
No end group written: not given here.

Columns and labels:
[1] = system: in Gewebekultur gezüchtete Zellen von Rattenhypophysen; experiment: Growth hormone release from cultured rat pituitary cells (RIA for rat growth hormone); format: cell-based, Sprague-Dawley-Ratten
Text: Die biologische Aktivität von (leu^27)-GRF(1―44)-OH wurde mit derjenigen von natürlichem GRF(1―44)-NH2 verglichen, das aus einem Pankreastumor eines an Akromegalie leidenden Patienten isoliert wurde (Salk Institute Standard hp-GRF-NH2(NL-A-10)). Der Test auf biologische Aktivität, bei dem die Fähigkeit gemessen wird, in Gewebekultur gezüchtete Zellen von Rattenhypophysen zur Wachstumshormonproduktion zu stimulieren, wurde in der folgenden Weise durchgeführt:
Die Hypophysen-Vorderlappen von 30-40 männlichen Sprague-Dawley-Ratten (175 g) wurden dreimal mit sterilem Hepes-Puffer (pH 7,5) gewaschen und bei 37°C in 20-30 ml Hepes-Puffer (0,025 m, pH 7,35), enthaltend Kollagenase (4 mg/ml) und Dispase (2 mg/ml), dispergiert. Nach 100-110 minütiger Behandlung mit einem Vortex-Mixer und Behandlung mit Pasteur-Pipette, wurden die dispergierten Zellen durch Zentrifugieren (4 Minuten, 150xg) abgetrennt und während 10 Minuten in Hepes-Puffer, enthaltend 8 pg/ml Neuraminidase und 200 pg/ml Ethylendiamintetraessigsäure-dinatriumsalz, pH 7,35, resuspendiert. Die Zellen wurden zweimal mit folgendem Medium gewaschen: F-12/DMEM/BGjb (6:3:1) (Gibco: 430―1700/430―1600/320―2591) mit 2 g/I Rinderserumalbumin (BSA), 2x38 g/I Hepes und 50 mg/I Gentamycin und auf Mikrotiterplatten aufgebracht (1,5x10^5 Zellen/ml). Dem Medium in den einzelnen Löchern wurde entweder (leu^27)-GRF(1―44)-OH oder natürliches GRF(1-44)-NH2 in solchen Mengen zugesetzt, dass sich folgende Konzentrationen ergaben: 3.1, 6.3, 12.5, 25.0, 50.0, 100.0 und 200.0 fMol/ml. Die Kontrollen wurden nicht supplementiert. Das Aufbringen mit diesem Medium erfolgte unter Zusatz von 2% fötalem Kälberserum, um eine schnelle Fixierung der Zellen zu erreichen. Am vierten Tag wurden die Zellen zweimal mit dem oben definierten Medium (ohne Kälberserum) gewaschen. Schliesslich wurden jedem Loch 900 µl des Mediums sowie 100 µl Medium mit der Testsubstanz zugesetzt (jeweils dreifach). Nach dreistündiger Inkubation wurde der Überstand gesammelt und soweit verdünnt, dass Radioimmunoassays (RIAs) auf Ratten-Wachstumshormon durchgeführt werden konnten. […]

[2] = synthetically prepared peptides; factor relative to GRF(1-40)-OH; cited from earlier work

Substance | relative Aktivität gegenüber dem Standard des Salk Instituts ([1]; computer analysis of the table data, standard hp-GRF-NH2(NL-A-10) = natural GRF(1-44)-NH2, 3.1-200.0 fMol/ml, 3 h incubation) | Faktor, um den die ausgeschüttete Menge an Wachstumshormon grösser ist, bezogen auf (leu^27)-GRF-OH ([1]; in vitro) | Aktivität verglichen mit GRF(1-44)-NH2 ([1]; stimulation of growth hormone production, 3.1-200.0 fMol/ml, 3 h incubation) | Aktivitäten ähnlich wie GRF(1-40)-OH (innerhalb eines Faktors) [2]
(leu^27)-GRF(1―44)-OH (YADAIFTNSYRKVLGQLSARKLLQDILSRQQGESNQERGARARL-OH; UniProt P01286 32-75, looked up, variant M27L) [(Leu^27)-GRF(1-44)-OH] | 1,063 | ≥ 10 | gleich oder leicht höher | –
GRF(1-29)-NH2: synthetic GRF fragment, first 29 amino acids, amidated (Rivier et al.) (YADAIFTNSYRKVLGQLSARKLLQDIMSR-NH2; UniProt P01286 32-60, looked up, fragment) | – | – | – | ≤ 2
GRF(1-32)-NH2: synthetic GRF fragment, first 32 amino acids, amidated (Rivier et al.) (YADAIFTNSYRKVLGQLSARKLLQDIMSRQQG-NH2; UniProt P01286 32-63, looked up, fragment) | – | – | – | ≤ 2
GRF(1-39)-NH2: synthetic GRF fragment, first 39 amino acids, amidated (Rivier et al.) (YADAIFTNSYRKVLGQLSARKLLQDIMSRQQGESNQERG-NH2; UniProt P01286 32-70, looked up, fragment) | – | – | – | ≤ 2
GRF(1-40)-NH2: synthetic GRF fragment, first 40 amino acids, amidated (Rivier et al.) (YADAIFTNSYRKVLGQLSARKLLQDIMSRQQGESNQERGA-NH2; UniProt P01286 32-71, looked up, fragment) | – | – | – | ≤ 2
